As a reminder, the melting point is the temperature, or range, at which the solid turns liquid. Consider `Cc1cc2nnn(Cc3ccc(NC(=O)c4ccc([N+](=O)[O-])cc4)cc3)c2cc1C`, for which the melting point is 192 to 194 °C.
The figure for `O=C(Nc1ccc(Cn2nnc3cc(F)c(F)cc32)cc1)c1ccc(F)cc1` is 241 to 242 °C.
The figure for `CCC(=O)Nc1ccc(Cn2nnc3ccccc32)cc1` is 192 to 195 °C; for `CCCC(=O)Nc1ccc(Cn2nnc3c(F)cccc32)cc1` it is 215 to 216 °C.
Turning to `CCC(C)NC(=O)Nc1cccc(Cn2nnc3cc(C)c(C)cc32)c1` (stereo not shown), the melting point is 202 to 204 °C.
`CCCCNC(=O)Nc1cccc(Cn2nnc3cc(Cl)c(Cl)cc32)c1`: the melting point is 232 to 233 °C.
The value for `Cc1cc2nnn(Cc3cccc(NC(=O)c4ccc(C(F)(F)F)cc4)c3)c2cc1C` was 201 to 203 °C; that for `COc1ccc(C(=O)Nc2cccc(Cn3nnc4cc(Cl)c(Cl)cc43)c2)cc1` was 221 to 223 °C.
The value for `Cc1cc2nnn(Cc3cccc(NC(=O)Nc4ccc(Cl)cc4)c3)c2cc1C` was 249 to 251 °C; that for `O=C(Nc1ccccc1)Nc1ccc(Cn2nnc3ccccc32)cc1` was 159 to 161 °C.
Consider `O=C(Nc1ccc(Cn2nnc3ccccc32)cc1)c1ccc([N+](=O)[O-])cc1`, for which the melting point was 245 to 246 °C.
The value for `CCCNC(=O)Nc1ccc(Cn2nnc3cc(F)c(F)cc32)cc1` was 286 to 287 °C.
Compound `CCCCNC(=O)Nc1ccc(Cn2nnc3cc(Cl)c(Cl)cc32)cc1` had a melting point of 216 to 217 °C.
Regarding `O=C(Nc1ccc(Cn2nnc3cc(Cl)c(Cl)cc32)cc1)NC1CCCCC1`, the melting point was 130 to 132 °C.
The value for `CCNC(=O)Nc1cccc(Cn2nc3cc(C)c(C)cc3n2)c1` was 218 to 219 °C.
The value for `CCC(=O)Nc1ccc(Cn2nnc3cc(F)c(F)cc32)cc1` was 240 to 242 °C; that for `COc1ccc(C(=O)Nc2cccc(Cn3nnc4cc(C)c(C)cc43)c2)cc1` was 203 to 206 °C; that for `COc1cc(C(=O)Nc2ccc(Cn3nnc4ccccc43)cc2)cc(OC)c1OC` was 147 to 149 °C.
With `O=C(Nc1ccc(Cn2nnc3c(F)cccc32)cc1)c1ccccc1`, the melting point is 214 to 217 °C.
The figure for `O=C(Nc1ccc(Cn2nnc3ccccc32)cc1)c1ccc(OC(F)(F)F)cc1` is 229 to 231 °C.
`CCC(=O)Nc1ccc(Cn2nnc3c(F)cccc32)cc1` gave a melting point of 244 to 246 °C.
As to `CCC(=O)Nc1cccc(Cn2nc3cc(C)c(C)cc3n2)c1`, the melting point was 178 to 182 °C.
`Cc1cc2nn(Cc3cccc(NC(=O)c4ccc(Cl)cc4)c3)nc2cc1C` registered a melting point of 246 to 247 °C.
The figure for `CC(=O)Nc1ccc(Cn2nnc3c(F)cccc32)cc1` is 233 to 234 °C; for `CCNC(=O)Nc1ccc(Cn2nnc3cc(F)c(F)cc32)cc1` it is 286 to 287 °C.
The figure for `CCNC(=O)Nc1cccc(Cn2nnc3cc(C)c(C)cc32)c1` is 271 to 273 °C; for `Cc1cc2nnn(Cc3cccc(NC(=O)c4ccc(Cl)cc4)c3)c2cc1C` [53b] it is 227 to 229 °C.
The value for `CC(=O)Nc1cccc(Cn2nc3cc(C)c(C)cc3n2)c1` was 184 to 187 °C; that for `CCNC(=O)Nc1cccc(Cn2nnc3cc(Cl)c(Cl)cc32)c1` was 244 to 245 °C; that for `COc1ccc(C(=O)Nc2ccc(Cn3nnc4cc(C)c(C)cc43)cc2)cc1` was 196 to 198 °C.
As for `COc1ccc(NC(=O)Nc2cccc(Cn3nnc4cc(C)c(C)cc43)c2)cc1`, the melting point lay in the range of 233 to 235 °C.
`CCCNC(=O)Nc1ccc(Cn2nnc3cc(Cl)c(Cl)cc32)cc1` had a melting point of 213 to 214 °C.
The figure for `O=C(Nc1cccc(Cn2nnc3cc(Cl)c(Cl)cc32)c1)NC1CCCC1` is 231 to 232 °C.
In turn, `O=C(Nc1ccc(Cn2nnc3cc(F)c(F)cc32)cc1)c1ccc(Cl)cc1` came in with a melting point of 263 to 264 °C.
Take `CCC(=O)Nc1cccc(Cn2nnc3cc(C)c(C)cc32)c1`: the melting point was in the range of 155 to 157 °C.
Turning to `Cc1cc2nnn(Cc3cccc(NC(=O)NC4CCCCC4)c3)c2cc1C`, the melting point fell in the range of 233 to 235 °C.
The compound `COc1ccc(C(=O)Nc2ccc(Cn3nnc4c(F)cccc43)cc2)cc1` returned a melting point of 266 to 268 °C.
The figure for `Cc1ccc(C(=O)Nc2ccc(Cn3nnc4cc(F)c(F)cc43)cc2)cc1` is 297 to 299 °C; for `O=C(Nc1cccc(Cn2nnc3cc(Cl)c(Cl)cc32)c1)c1ccc([N+](=O)[O-])cc1` it is 217 to 218 °C; for `CCCNC(=O)Nc1cccc(Cn2nnc3cc(Cl)c(Cl)cc32)c1` it is greater than 300 °C.
Compound `COc1cc(NC(=O)Nc2cccc(Cn3nnc4cc(C)c(C)cc43)c2)cc(OC)c1OC` gave a melting point of 206 to 208 °C.
The figure for `Cc1cc2nnn(Cc3cccc(NC(=O)c4ccc(C#N)cc4)c3)c2cc1C` is 242 to 247 °C; for `Cc1cc2nn(Cc3cccc(NC(=O)NC4CCCC4)c3)nc2cc1C` it is 298 to 299 °C; for `Cc1ccc(C(=O)Nc2cccc(Cn3nnc4cc(C)c(C)cc43)c2)cc1` it is 211 to 212 °C.
Regarding `Cc1ccc(C(=O)Nc2cccc(Cn3nnc4cc(Cl)c(Cl)cc43)c2)cc1`, the melting point is 199 to 200 °C.
In the case of `N#Cc1ccc(C(=O)Nc2cccc(Cn3nnc4cc(Cl)c(Cl)cc43)c2)cc1`, the melting point lay within 167 to 169 °C.
Regarding `Cc1cc2nnn(Cc3cccc(NC(=O)c4ccc([N+](=O)[O-])cc4)c3)c2cc1C`, the melting point is 227 to 230 °C.
The value for `Cc1cc2nn(Cc3cccc(NC(=O)NC4CCCCC4)c3)nc2cc1C` was 299 to 300 °C.
Regarding `COc1cc(C(=O)Nc2cccc(Cn3nnc4cc(C)c(C)cc43)c2)cc(OC)c1OC` [51b], the melting point lay within 160 to 162 °C.
The figure for `Cc1cc2nn(Cc3cccc(NC(=O)c4ccc(Br)cc4)c3)nc2cc1C` is 267 to 268 °C; for `Cc1cc2nnn(Cc3cccc(NC(=O)Nc4ccc(F)cc4)c3)c2cc1C` it is 245 to 247 °C.
`CCCCNC(=O)Nc1cccc(Cn2nnc3cc(C)c(C)cc32)c1`: the melting point is 195 to 197 °C.
For `O=C(Nc1cccc(Cn2nnc3cc(Cl)c(Cl)cc32)c1)c1ccc(C(F)(F)F)cc1`, the melting point was in the range of 211 to 213 °C.
The figure for `Nc1ccc(C(=O)Nc2cccc(Cn3nnc4cc(Cl)c(Cl)cc43)c2)cc1` is 101 to 102 °C; for `O=C(Nc1ccc(Cn2nnc3cc(F)c(F)cc32)cc1)c1ccc([N+](=O)[O-])cc1` it is 240 to 242 °C.
Regarding `O=C(Nc1ccc(Cn2nnc3cc(F)c(F)cc32)cc1)NC1CCCCC1`, the melting point lay in the range of 203 to 204 °C.
Take `Cc1cc2nn(Cc3cccc(NC(=O)c4ccc([N+](=O)[O-])cc4)c3)nc2cc1C`: the melting point lay within 184 to 187 °C.
The figure for `O=C(Nc1ccc(Cn2nnc3cc(F)c(F)cc32)cc1)c1ccc(Br)cc1` is 235 to 236 °C.
On to `CC(=O)Nc1cccc(Cn2nnc3cc(C)c(C)cc32)c1`, for which the melting point lay within 198 to 200 °C.
The compound `CC(=O)Nc1ccc(Cn2nnc3cc(F)c(F)cc32)cc1` returned a melting point of 242 to 243 °C.
The figure for `O=C(Nc1ccc(Cn2nnc3c(F)cccc32)cc1)c1ccc([N+](=O)[O-])cc1` is 272 to 274 °C.

For the origin of these results see PMC10054465, “Design, Synthesis, and Antiviral Activities of New Benzotriazole-Based Derivatives” (Pharmaceuticals, 2023).
